Data from patent US20250006334A1, “SIROLIMUS PHARMACOKINETICS GUIDED AND MODEL INFORMED PRECISION DOSING” (Children's Hospital Medical Center, priority 2023, published 2025).

Assay: Observed sirolimus trough blood concentration in infant patients under model-informed precision dosing
Type: in vivo, human
Excerpt: After therapy has been initiated using the initial dose, data may be collected 103 on the impact of the therapy. This may be done, for example, by, 7-14 days after the start of therapy, taking a pre-dose trough blood sample which could then be sent to a lab to determine a sirolimus blood concentration. Alternatively, in some cases additional samples may be taken. For example, in a case where an abbreviated area under the curve PK consult is ordered, data collection 103 may include taking three whole blood samples: a first sample taken 15-30 minutes before a dose, a second sample taken 45-75 minutes after the dose, and a third sample taken 150-210 minutes after the dose. A laboratory could then process the sample(s), and the sirolimus concentration could be reported back. For example, in a case where an application for recommending individualized sirolimus doses was implemented based on this disclosure, the lab could report the results back through an API exposed by a web portal supported by the application, or could send the results back through an external communication channel (e.g., secure email) to the user of the application, and that user could then input the results to the application himself or herself.
However the model refinement 105 is performed, once a refined model is available, it may be applied 106 to determine a personalized dose for the patient. […]

- observed sirolimus trough concentration at six months of age (FIG. 2, infant who started sirolimus at 2 months of age, doses predicted from weight, PMA and concentration measured at three months, target range 10-12 ng/mL): 9.3 ng/mL
- observed sirolimus trough concentration at 6 months (FIG. 3, prediction from age 4 months to 6 months based on concentration at 4 months, weight and PMA, target trough range 10-12 ng/mL): 10.5 ng/mL
SMILES: CO[C@H]1C[C@@H]2CC[C@@H](C)[C@@](O)(O2)C(=O)C(=O)N2CCCC[C@H]2C(=O)O[C@H]([C@H](C)C[C@@H]2CC[C@@H](O)[C@H](OC)C2)CC(=O)[C@H](C)/C=C(\C)[C@@H](O)[C@@H](OC)C(=O)[C@H](C)C[C@H](C)/C=C/C=C/C=C/1C [sirolimus]
